A value given as a limit tells only on which side of the number the result lay.

For the experiment, the target named is T1, APOL1 (Homo sapiens, UniProt O14791).
T1 sequence (O14791 1-398): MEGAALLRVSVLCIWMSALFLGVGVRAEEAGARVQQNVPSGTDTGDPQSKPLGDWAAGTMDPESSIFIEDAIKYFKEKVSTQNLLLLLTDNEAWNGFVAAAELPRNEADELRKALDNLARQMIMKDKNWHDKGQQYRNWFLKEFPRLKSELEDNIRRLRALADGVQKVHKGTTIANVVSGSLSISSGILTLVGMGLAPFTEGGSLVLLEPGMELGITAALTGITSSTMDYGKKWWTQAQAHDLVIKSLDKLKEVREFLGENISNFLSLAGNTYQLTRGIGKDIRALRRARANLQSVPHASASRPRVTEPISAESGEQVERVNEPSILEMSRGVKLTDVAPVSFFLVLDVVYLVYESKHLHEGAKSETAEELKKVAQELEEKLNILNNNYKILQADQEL
Description: MultiTox-Fluor Multiplex Cytotoxicity Assay, tet-inducible APOL1 T-REx-HEK293 cells (G0, G1 or G2 clone not specified for Table 20). The class given is cell-based. Conditions: tet-induced, 24 hours with compound, ratio of dead to live cells, read-out: IP50 (i.e., IC50 for cell proliferation). In outline: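 HEK293 T-REx cells with tet-inducible APOL1 G0, G1 or G2 clone, 23,400/well, treated with tetracycline plus compound (top 10 μM, 10-point 3-fold, duplicate) for 24 h at 37° C. MultiTox-Fluor dead/live fluorescence ratio, normalized to no-tet (100% viability) and 50 ng/mL tet (0% viability) controls, then curve-fitted.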
As to `Cc1ccc2c(c1)C1(CCN(Cc3cnn(-c4ccccc4)c3)CC1)OC2C(N)=O` (stereo not drawn) [Compound 196], the IC50 was at most 50 nM.
Consider `NC(=O)C1OC2(CCN(Cc3cnn(-c4ccccc4)c3)CC2)c2cc(C(F)(F)F)ccc21` (stereo not drawn) [Compound 197], for which the IC50 is at most 50 nM.
`CNC(=O)C1OC2(CCN(Cc3cnn(-c4ccccc4)c3)CC2)c2cc(C)ccc21` (stereo not drawn) [Compound 198]: the IC50 was at most 50 nM.
Next, `CNC(=O)C1OC2(CCN(Cc3cnn(-c4ccccc4)c3)CC2)c2cc(C(F)(F)F)ccc21` (stereo not drawn) [Compound 199]: 50 to 500 nM; `CNC(=O)C1OC2(CCN(Cc3cnn(C4CCOCC4)c3)CC2)c2cc(Cl)ccc21` (stereo not drawn) [Compound 200]: 50 to 500 nM.
Take `NC(=O)C1OC2(CCN(Cc3cnn(-c4ccccn4)c3)CC2)c2cc(Cl)ccc21` (stereo not drawn) [Compound 201]: the IC50 was at most 50 nM.
Turning to `CNC(=O)C1OC2(CCN(Cc3cnn(-c4cccnc4)c3)CC2)c2cc(Cl)ccc21` (stereo not drawn) [Compound 202], the IC50 was at most 50 nM.
Consider `N#Cc1ccc2c(c1)C1(CCN(Cc3cnn(-c4ccccc4)c3)CC1)OC2C(N)=O` (stereo not drawn) [Compound 203, 5-cyano-1′-[(1-phenylpyrazol-4-yl)methyl]spiro[1H-isobenzofuran-3,4′-piperidine]-1-carboxamide], for which the IC50 was at most 50 nM.
As to `CNC(=O)C1OC2(CCN(Cc3cnn(-c4ccccc4)c3)CC2)c2cc(C#N)ccc21` (stereo not drawn) [Compound 204, 5-cyano-N-methyl-1′-[(1-phenylpyrazol-4-yl)methyl]spiro[1H-isobenzofuran-3,4′-piperidine]-1-carboxamide], the IC50 was 50 to 500 nM.
With `CCc1ccc2c(c1)C1(CCN(Cc3cnn(-c4ccccc4)c3)CC1)OC2C(N)=O` (stereo not drawn) [Compound 205, 5-ethyl-1′-[(1-phenylpyrazol-4-yl)methyl]spiro[1H-isobenzofuran-3,4′-piperidine]-1-carboxamide], the IC50 was at most 50 nM.
Consider `CCc1ccc2c(c1)C1(CCN(Cc3cnn(-c4ccccc4)c3)CC1)OC2C(=O)NC` (stereo not drawn) [Compound 206, 5-ethyl-N-methyl-1′-[(1-phenylpyrazol-4-yl)methyl]spiro[1H-isobenzofuran-3,4′-piperidine]-1-carboxamide], for which the IC50 was in the range of 50 to 500 nM.
On to `CS(=O)(=O)CCn1cc(CN2CCC3(CC2)OC(C(N)=O)c2ccc(C(F)(F)F)cc23)nn1` (stereo not drawn) [Compound 207, 1′-[[1-(2-methylsulfonylethyl)triazol-4-yl]methyl]-5-(trifluoromethyl)spiro[1H-isobenzofuran-3,4′-piperidine]-1-carboxamide], for which the IC50 was at least 500 nM.
On to `CS(=O)(=O)CCn1cc(CN2CCC3(CC2)OC(C(N)=O)c2ccc(Cl)cc23)nn1` (stereo not drawn) [Compound 208, 5-chloro-1′-[[1-(2-methylsulfonylethyl)triazol-4-yl]methyl]spiro[1H-isobenzofuran-3,4′-piperidine]-1-carboxamide], for which the IC50 is at least 500 nM.
With `Cc1ncc(-n2cc(CN3CCC4(CC3)OC(C(N)=O)c3ccc(Cl)cc34)cn2)cn1` (stereo not drawn) [Compound 209, 5-chloro-1′-[[1-(2-methylpyrimidin-5-yl)pyrazol-4-yl]methyl]spiro[1H-isobenzofuran-3,4′-piperidine]-1-carboxamide], the IC50 is at most 50 nM.
Regarding `CNC(=O)C1OC2(CCN(Cc3cnn(CCS(C)(=O)=O)c3)CC2)c2cc(Cl)ccc21` (stereo not drawn) [Compound 210, 5-chloro-N-methyl-1′-[[1-(2-methylsulfonylethyl)pyrazol-4-yl]methyl]spiro[1H-isobenzofuran-3,4′-piperidine]-1-carboxamide], the IC50 was 50 to 500 nM.
Regarding `CNC(=O)C1OC2(CCN(Cc3cnn(-c4cnc(C)nc4)c3)CC2)c2cc(Cl)ccc21` (stereo not drawn) [Compound 211, 5-chloro-N-methyl-1′-[[1-(2-methylpyrimidin-5-yl)pyrazol-4-yl]methyl]spiro[1H-isobenzofuran-3,4′-piperidine]-1-carboxamide], the IC50 is at most 50 nM.
In the case of `NC(=O)C1OC2(CCN(Cc3cnn(-c4cccc(C(F)(F)F)c4)c3)CC2)c2cc(Cl)ccc21` (stereo not drawn) [Compound 212, 5-chloro-1′-[[1-[3-(trifluoromethyl)phenyl]pyrazol-4-yl]methyl]spiro[1H-isobenzofuran-3,4′-piperidine]-1-carboxamide], the IC50 was at most 50 nM.
`Cc1c(CN2CCC3(CC2)OC(C(N)=O)c2ccc(Cl)cc23)cnn1-c1ccccc1` (stereo not drawn) [Compound 213]: the IC50 was 50 to 500 nM.
For `CS(=O)(=O)CCn1cc(CN2CCC3(CC2)OC(C(N)=O)c2ccc(Cl)cc23)cn1` (stereo not drawn) [Compound 214], the IC50 was at most 50 nM.
For `Cc1ncc(CN2CCC3(CC2)OC(C(N)=O)c2ccc(Cl)cc23)cn1` (stereo not drawn) [Compound 215], the IC50 was at least 500 nM.
As for `Cn1cc(CN2CCC3(CC2)OC(C(N)=O)c2ccc(Cl)cc23)cn1` (stereo not drawn) [Compound 216], the IC50 was at most 50 nM.
Regarding `N#Cc1ccc(CN2CCC3(CC2)OC(C(N)=O)c2ccc(Cl)cc23)cc1` (stereo not drawn) [Compound 217], the IC50 was in the range of 50 to 500 nM.
With `Cc1ccc(CN2CCC3(CC2)OC(C(N)=O)c2ccc(Cl)cc23)nn1` (stereo not drawn) [Compound 218], the IC50 was at least 500 nM.
Next, `NC(=O)C1OC2(CCN(Cc3cnn(C4CCS(=O)(=O)C4)c3)CC2)c2cc(Cl)ccc21` (stereo not drawn) [Compound 219]: at most 50 nM.
With `CC(C)n1cc(CN2CCC3(CC2)OC(C(N)=O)c2ccc(Cl)cc23)cn1` (stereo not drawn) [Compound 220], the IC50 is at least 500 nM.
With `Cc1nc(CN2CCC3(CC2)OC(C(N)=O)c2ccc(Cl)cc23)co1` (stereo not drawn) [Compound 221], the IC50 is at least 500 nM.
Turning to `Cc1nc(CN2CCC3(CC2)OC(C(N)=O)c2ccc(Cl)cc23)c[nH]1` (stereo not drawn) [Compound 222], the IC50 is at least 500 nM.
As for `CS(=O)(=O)c1ccc(CN2CCC3(CC2)OC(C(N)=O)c2ccc(Cl)cc23)cc1` (stereo not drawn) [Compound 223], the IC50 fell in the range of 50 to 500 nM.
Next, `CS(=O)(=O)c1ccc(CN2CCC3(CC2)OC(C(N)=O)c2ccc(Cl)cc23)c(F)c1` (stereo not drawn) [Compound 224]: at least 500 nM; `NC(=O)c1ccc(CN2CCC3(CC2)OC(C(N)=O)c2ccc(Cl)cc23)cc1` (stereo not drawn) [Compound 225]: at most 50 nM; `NC(=O)C1OC2(CCN(Cc3cn[nH]c3)CC2)c2cc(Cl)ccc21` (stereo not drawn) [Compound 226, 5-chloro-1′-(1H-pyrazol-4-ylmethyl)spiro[1H-isobenzofuran-3,4′-piperidine]-1-carboxamide]: at most 50 nM.
Regarding `Cc1ccc(CN2CCC3(CC2)OC(C(N)=O)c2ccc(Cl)cc23)cn1` (stereo not drawn) [Compound 227], the IC50 was at most 50 nM.
For `NC(=O)C1OC2(CCN(Cc3cnn4cccnc34)CC2)c2cc(Cl)ccc21` (stereo not drawn) [Compound 228], the IC50 lay within 50 to 500 nM.
On to `NC(=O)C1OC2(CCN(Cc3c[nH]c4ncncc34)CC2)c2cc(Cl)ccc21` (stereo not drawn) [Compound 229], for which the IC50 is at least 500 nM.
Take `CN1C(=O)Cc2ccc(CN3CCC4(CC3)OC(C(N)=O)c3ccc(Cl)cc34)cc21` (stereo not drawn) [Compound 230]: the IC50 was at most 50 nM.
Next, `Cc1cc2ncc(CN3CCC4(CC3)OC(C(N)=O)c3ccc(Cl)cc34)cn2n1` (stereo not drawn) [Compound 231]: 50 to 500 nM.
Take `NC(=O)C1OC2(CCN(Cc3c[nH]c4nccnc34)CC2)c2cc(Cl)ccc21` (stereo not drawn) [Compound 232]: the IC50 is at most 50 nM.
Regarding `CNC(=O)c1ccc(CN2CCC3(CC2)OC(C(N)=O)c2ccc(Cl)cc23)cc1` (stereo not drawn) [Compound 233], the IC50 is at most 50 nM.
As for `NC(=O)C1OC2(CCN(Cc3cnc[nH]3)CC2)c2cc(Cl)ccc21` (stereo not drawn) [Compound 234], the figure is at most 50 nM.
For the compound `NC(=O)C1OC2(CCN(Cc3cnn(C4CCOCC4)c3)CC2)c2cc(Cl)ccc21` (stereo not drawn) [Compound 235], the IC50 was at most 50 nM.
With `COCCn1cc(CN2CCC3(CC2)OC(C(N)=O)c2ccc(Cl)cc23)cn1` (stereo not drawn) [Compound 236], the IC50 was in the range of 50 to 500 nM.
For `Cc1noc2ncc(CN3CCC4(CC3)OC(C(N)=O)c3ccc(Cl)cc34)cc12` (stereo not drawn) [Compound 237], the IC50 lay within 50 to 500 nM.
Next, `NC(=O)C1OC2(CCN(Cc3cnc4c(c3)COCC4)CC2)c2cc(Cl)ccc21` (stereo not drawn) [Compound 238]: at least 500 nM; `NC(=O)C1OC2(CCN(Cc3cnn(-c4cccnc4)c3)CC2)c2cc(Cl)ccc21` (stereo not drawn) [Compound 239]: at most 50 nM; `NC(=O)c1cccc(CN2CCC3(CC2)OC(C(N)=O)c2ccc(Cl)cc23)c1F` (stereo not drawn) [Compound 240]: at least 500 nM.
In the case of `CC1(n2cc(CN3CCC4(CC3)OC(C(N)=O)c3ccc(Cl)cc34)cn2)CCS(=O)(=O)C1` (stereo not drawn) [Compound 241], the IC50 is at least 500 nM.
`NC(=O)C1OC2(CCN(Cc3cc(C4CC4)[nH]n3)CC2)c2cc(Cl)ccc21` (stereo not drawn) [Compound 242]: the IC50 lay in the range of 50 to 500 nM.
As to `NC(=O)C1OC2(CCN(Cc3ccc(S(N)(=O)=O)cc3F)CC2)c2cc(Cl)ccc21` (stereo not drawn) [Compound 243], the IC50 lay within 50 to 500 nM.
Next, `CNc1ncc(CN2CCC3(CC2)OC(C(N)=O)c2ccc(Cl)cc23)cn1` (stereo not drawn) [Compound 244]: at most 50 nM; `NC(=O)c1cnc(CN2CCC3(CC2)OC(C(N)=O)c2ccc(Cl)cc23)cn1` (stereo not drawn) [Compound 245]: 50 to 500 nM; `COC(=O)c1ccc(CN2CCC3(CC2)OC(C(N)=O)c2ccc(Cl)cc23)cn1` (stereo not drawn) [Compound 246]: at most 50 nM.
As to `Cc1cc(CN2CCC3(CC2)OC(C(N)=O)c2ccc(Cl)cc23)nn1C` (stereo not drawn) [Compound 247], the IC50 is at least 500 nM.
As for `NC(=O)C1OC2(CCN(Cc3c[nH]c4cnccc34)CC2)c2cc(Cl)ccc21` (stereo not drawn) [Compound 248], the figure is at most 50 nM; as for `NC(=O)C1OC2(CCN(Cc3cc4n(n3)CCOC4)CC2)c2cc(Cl)ccc21` (stereo not drawn) [Compound 249], at least 500 nM.

The values above are taken from patent US20250195483A1, “SPIRO PIPERIDINE DERIVATIVES AS INHIBITORS OF APOL1 AND METHODS OF USING SAME” (Vertex Pharmaceuticals Incorporated, priority 2022, published 2025).
